From patent publication US20150104868A1, “Methods of Maintaining and Improving Biological Cell Function and Activity” (GARGILL INCORPORATED, priority 2012, published 2015)

Test system: CRL 1730 HUVECs
Assay: Microarray transcriptomics of HUVEC (HGERT/HG, HG/NG)
Type: cell-based, human
[1] = Breast cancer, Cysteine/gluathione
[2] = Breast cancer, Heat shock protein
[3] = Breast cancer, ILK signaling (integrin linked kinase)
[4] = Breast cancer, Mitotic cell cycle
[5] = Breast cancer, One carbon metabolism
[6] = Breast cancer, Peptidase activity
[7] = Breast cancer, Plasminogen activators
[8] = Breast cancer, Reactive oxygen species
[9] = Breast cancer, Tyrosine phosphatase activity
[10] = HUVEC, 5 mM ERT + 30 mM glucose vs 30 mM glucose

OC[C@@H](O)[C@@H](O)CO [ERT, meso-1,2,3,4-tetrahydroxybutane]
HGERT/HG TRIT1 (TRNA isopentenyltransferase 1) (Breast cancer, ATP metabolism): 0.98 Ω
HGERT/HG VPS4B (Vacuolar protein sorting 4 homolog B (S. cerevisiae)) (Breast cancer, ATP metabolism): 0.99 Ω
HGERT/HG YME1L1 (YME1-like 1 (S. cerevisiae)) (Breast cancer, ATP metabolism): 1.00 Ω
HGERT/HG CORO1A (Coronin, actin binding protein, 1A) (Breast cancer, Actin binding): 0.94 Ω
HGERT/HG PLEC1 (Plectin) (Breast cancer, Actin binding): Ψ 1.03
HGERT/HG JUP (Junction plakoglobin) (Breast cancer, Alpha-catenin binding): Ψ 1.01
HGERT/HG AHCYL1 (Adenosylhomocysteinase-like 1) [1]: Ψ 1.01
HGERT/HG ATIC (5-aminoimidazole-4-carboxamide ribonucleotide formyltransferase/IMP cyclohydroiase) [1]: 0.99 Ω
HGERT/HG ESD (Esterase D) [1]: 0.99 Ω
HGERT/HG DCK (Deoxycytidine kinase) (Breast cancer, Deoxycytidine metabolism): 0.98 Ω
HGERT/HG COL4A6 (Collagen, type IV, alpha 6) (Breast cancer, Focal adhesion): Ψ 1.03
HGERT/HG DNAJC8 (DnaJ (Hsp40) homolog, subfamily C, member 8) [2]: 0.99 Ω
HGERT/HG DNAJC11 (DnaJ (Hsp40) homolog, subfamily C, member 11) [2]: Ψ 1.01
HGERT/HG ACTN1 (Breast cancer, Hypoxia response): 0.99 Ω
HGERT/HG ACTN1 (Actinin, alpha 1) [3]: Ψ 1.01
HGERT/HG FBLIM1 (Flamin binding LIM protein 1) [3]: Ψ 1.02
HGERT/HG NCK2 (NCK adaptor protein 2) [3]: Ψ 1.01
HGERT/HG PXN (Paxillin) [3]: Ψ 1.01
HGERT/HG RHOB (Ras homolog gene family, member B) [3]: Ψ 1.02
HGERT/HG RHOJ (Ras homolog gene family, member J) [3]: Ψ 1.02
HGERT/HG RSU1 (Ras suppressor protein 1) [3]: 0.99 Ω
HGERT/HG VIM (Vimentin) [3]: 1.00 Ω
HGERT/HG ACTN1 (Actinin, alpha 1) (Breast cancer, Insulin binding): Ψ 1.01
HGERT/HG FBLM1 (Filamin binding LIM protein 1) (Breast cancer, Insulin binding): Ψ 1.02
HGERT/HG NCK2 (NCK adaptor protein 2) (Breast cancer, Insulin binding): Ψ 1.01
HGERT/HG PIK3R1 (Phosphoinositide-3 kinase, regulatory subunit 1 (alpha)) (Breast cancer, Insulin binding): Ψ 1.03
HGERT/HG PXN (Paxillin) (Breast cancer, Insulin binding): Ψ 1.01
HGERT/HG RHOB (Ras homolog gene family, member B) (Breast cancer, Insulin binding): Ψ 1.02
HGERT/HG RHOJ (Ras homolog gene family, member J) (Breast cancer, Insulin binding): Ψ 1.02
HGERT/HG RSU1 (Ras suppressor protein 1) (Breast cancer, Insulin binding): 0.99 Ω
HGERT/HG VIM (Vimentin) (Breast cancer, Insulin binding): 1.00 Ω
HGERT/HG WDRG (WD repeat domain 6) (Breast cancer, Insulin binding): Ψ 1.02
HGERT/HG AZI1 (S-azacytidine induced 1) [4]: Ψ 1.02
HGERT/HG CEP135 (Centrosomal protein 135kDa) [4]: Ψ 1.01
HGERT/HG CEP250 (Centrosomal protein 250kDa) [4]: 0.99 Ω
HGERT/HG FGFR1OP (FGFR1 oncogene partner) [4]: 0.99 Ω
HGERT/HG MPHOSPH6 (M-phase phosphoprotein G) [4]: 0.99 Ω
HGERT/HG UBA3 (Ubiquitin-like modifier activating enzyme 3) [4]: 0.99 Ω
HGERT/HG AHCYL1 (Adenosylhomocysteinase-like 1) [5]: Ψ 1.01
HGERT/HG ATIC (5-aminoimdazole-4-carboxamide ribonucleotide formyltransferase/IMP cyclohydroiase) [5]: 0.99 Ω
HGERT/HG ESD (Esterase D) [5]: 0.99 Ω
HGERT/HG OSTM1 (Osteopetrosis associated transmembrane protein 1) (Breast cancer, Osteoclast differentiation): 0.99 Ω
HGERT/HG CORO1A (Coronin, actin binding protein, 1A) (Breast cancer, PI3 kinase binding): 0.94 Ω
HGERT/HG ATXN3 (Ataxin 3) [6]: 0.99 Ω
HGERT/HG OTUD5 (OTU domain containing 5) [6]: Ψ 1.01
HGERT/HG SENP3 (SUMO1/sentrin/SMT3 sepcific peptidase 3) [6]: Ψ 1.01
HGERT/HG WFDC12 (WAP four-disulfide core domain 12) [6]: 0.96 Ω
HGERT/HG BAD2 (Bromodomain containing 2) [7]: Ψ 1.02
HGERT/HG RHOJ (Ras homolog gene family, member J) [7]: Ψ 1.02
HGERT/HG COX8A (Cytochrome c oxidase subunit VIIIA (ubiquitous)) [8]: 0.99 Ω
HGERT/HG JUP (Junction plankoglobin) [8]: Ψ 1.01
HGERT/HG MPHOSPH6 (M-phase phosphoprotein 6) [8]: 0.99 Ω
HGERT/HG SDHD (Succinate dehydrogenase complex, subunit D, integral membrane protein) [8]: 0.98 Ω
HGERT/HG SMOX (Spermine oxidase) [8]: 0.99 Ω
HGERT/HG SOS1 (Son of sevenless homolog 1 (Drosophila)) [8]: Ψ 1.06
HGERT/HG TCF12 (Transcription factor 12) [8]: 0.99 Ω
HGERT/HG TGM2 (Transglutaminase 2 (C polypeptide, protein-glutamine-gamma-glutamyltransferase)) [8]: Ψ 1.01
HGERT/HG PAQR3 (Progestin and adipoQ receptor family member III) (Breast cancer, Receptor activity): 0.98 Ω
HGERT/HG EID2 (EP300 interacting inhibitor of differentiation 2) (Breast cancer, SMAD binding): 0.99 Ω
HGERT/HG PGRMC2 (Progesterone receptor membrane component 2) (Breast cancer, Steroid hormone receptor activity): 0.98 Ω
HGERT/HG HS3ST1 (Heparan sulfate (glucosamine) 3-O-sulfotransferase 1) (Breast cancer, Sulfotransferase acfivity): Ψ 1.03
HGERT/HG DUSP23 (Dual specificity phosphatase 23) [9]: 0.99 Ω
HGERT/HG PTPLAD1 (Protein tyrosine phosphatase-like A domain containing 1) [9]: Ψ 1.01
transcriptomic changes, HG/NG vs HGERT/HG (HUVEC, HG conditions): reverses many of the transciptomic changes observed in its absence
HGERT/HG transcript ABCB10 [10]: 0.98 Ω
HGERT/HG transcript ACTL6A [10]: 0.98 Ω
HGERT/HG transcript ACTN1 [10]: Ψ 1.01
HGERT/HG transcript ACTR5 [10]: Ψ 1.01
HGERT/HG transcript AGTPBP1 [10]: 0.98
HGERT/HG transcript AHCYL1 [10]: Ψ 1.01
HGERT/HG transcript ANKZF1 [10]: 0.99
HGERT/HG transcript ATAD1 [10]: 0.99 Ω
HGERT/HG transcript ATAD3B [10]: Ψ 1.01
HGERT/HG transcript ATIC [10]: 0.99 Ω
HGERT/HG transcript ATP2C1 [10]: 0.99 Ω
HGERT/HG transcript ATP5E [10]: 0.99 Ω
HGERT/HG transcript ATP5O [10]: 1.00 Ω
HGERT/HG transcript ATP13A1 [10]: Ψ 1.02
HGERT/HG transcript AZI1 [10]: Ψ 1.02
HGERT/HG transcript BACE1 [10]: Ψ 1.02
HGERT/HG transcript BBS10 [10]: 0.98 Ω
HGERT/HG transcript BRD2 [10]: Ψ 1.02
HGERT/HG transcript Bcl2l12 [10]: Ψ 1.02
HGERT/HG transcript C3orf26 [10]: 0.99 Ω
HGERT/HG transcript C6orf66 [10]: 0.99 Ω
HGERT/HG transcript C20orf7 [10]: 0.99 Ω
HGERT/HG transcript CARS [10]: 1.00 Ω
HGERT/HG transcript CENPK [10]: 0.97 Ω
HGERT/HG transcript CEP135 [10]: Ψ 1.01
HGERT/HG transcript CEP250 [10]: 0.99
HGERT/HG transcript CHMP7 [10]: 0.99
HGERT/HG transcript CIB1 [10]: 1.00 Ω
HGERT/HG transcript CKAPS [10]: Ψ 1.01
HGERT/HG transcript CNIH2 [10]: 0.99
HGERT/HG transcript COG6 [10]: 0.99
HGERT/HG transcript COL4A6 [10]: Ψ 1.03
HGERT/HG transcript CORO1A [10]: 0.94 Ω
HGERT/HG transcript COX8A [10]: 0.99 Ω
HGERT/HG transcript CSNK1G1 [10]: Ψ 1.02
